Values of other authors as cited in article PMC9370779, “Traditional Medicinal Uses, Phytochemistry, Biological Properties, and Health Applications of Vitex sp” (Plants, 2022).
“Also recorded” adds a separate entry of the source. Where two headings read alike, the source gives them in different places.

How the values were obtained:
[1] = system: hepatocyte-derived carcinoma (HuH-7) cells; parameters: method as in PMID 18595136
[2] = system: lipopolysaccharide-induced nitric oxide (NO) production; parameters: method as in doi:10.1002/hlca.201600022
[3] = read-out: antioxidant effects, IC50 value
NO production = system: NO production; parameters: method as in PMID 27535293; details: up to a concentration of 100 µM
[4] = parameters: method as in PMID 10579867
[5] = system: NADP(H); quinone oxireductase type1 (QR1); parameters: method as in PMID 23662135
[6] = system: human nasopharyngeal carcinoma (CNE1) cell line; parameters: method as in PMID 28453270; details: read-out: cytotoxic activity against CNE1, IC50 value
[7] = parameters: method as in PMID 28602939; details: cell line not stated
HCT 116 cells = system: HCT 116 cells; parameters: method as in PMID 28602939
Topoisomerase-1 (Top1) = system: Topoisomerase-1 (Top1); parameters: method as in PMID 28602939
[8] = system: nuclear factor-kappa B (NF-κB) pathway in human embryonic kidney (HEK 293) cells; parameters: method as in PMID 29996686; details: TNF-α-induced
[9] = system: NO production in LPS-induced murine macrophage (RAW 264.7) cells; parameters: method as in PMID 29429059; details: LPS-induced RAW 264.7 macrophages, up to 100 μM
[10] = system: LPS-induced NO production; parameters: method as in PMID 31302252
[11] = system: interleukin 1-beta (IL-1β); parameters: method as in PMID 31302252
IL-6 = system: IL-6; parameters: method as in PMID 31302252
[12] = system: inducible nitric oxide synthase (iNOS); parameters: method as in PMID 31302252
COX-2 = system: COX-2; parameters: method as in PMID 31302252
NF-κB signal pathways = system: NF-κB signal pathways; parameters: method as in PMID 31302252
Musca domestica larvae = system: Musca domestica larvae; parameters: method as in doi:10.1016/S0031-9422(00)94985-9
Musca = system: Musca; parameters: method as in PMID 12444704
[13] = parameters: method as in PMID 24965780
[14] = parameters: method as in PMID 27118321; details: ABTS stated for 131
[15] = system: LPS-induced NO production in murine microglia (BV-2) cells; parameters: method as in PMID 27118321
[16] = system: human liver carcinoma (HepG2) cell lines; parameters: method as in PMID 27118321
[17] = system: gastric cancer (SGC-7901)
[18] = system: pancreatic cancer (PANC-01)
[19] = system: esophageal carcinoma (Eca-109)
[20] = parameters: method as in PMID 29343985; details: mice, acetic acid abdomen constriction
[21] = parameters: method as in PMID 29343985; details: mice, carrageenan paw oedema

C[C@]1(O)CC[C@@H]2C(C(=O)O)=CO[C@@H](O[C@@H]3O[C@H](CO)[C@@H](O)[C@H](O)[C@H]3OC(=O)c3ccc(O)cc3)[C@@H]21 [Compound 1, 2-p-hydroxybenzoyl mussaenosidic acid]
protective effects against CCl4-induced toxicity in HuH-7 cells and oxidative stress [1]: Showed protective effects against CCl4-induced toxicity in HuH-7 cells and oxidative stress

O=C(OCC1=CC(=O)C2C=CO[C@@H](O[C@@H]3O[C@H](CO)[C@@H](O)[C@H](O)[C@H]3O)C12)c1ccc(O)cc1 (stereo partly drawn) [Compound 18, agnusoside]
anti-inflammatory activity, LPS-induced NO production [2]: moderate anti-inflammatory activity; also recorded: Exhibited moderate anti-inflammatory activity using NO production induced by lipopolysaccharide

C=C1CC[C@@H]2C(C(=O)O)=CO[C@@H](O[C@@H]3O[C@H](COC(=O)c4ccc(O)cc4)[C@@H](O)[C@H](O)[C@H]3O)[C@H]12 [Compound 19, vitexnegheteroin K]
IC50 [3]: > 20 µM | inhibitory effects on α-glucosidase (α-glucosidase): moderate inhibitory effects

C[C@@H]1CC[C@@H]2C(C(=O)O)=CO[C@@H](O[C@@H]3O[C@H](COC(=O)c4ccc(O)cc4)[C@@H](O)[C@H](O)[C@H]3O)[C@H]12 [Compound 20, vitexnegheteroin L]
IC50 [3]: > 20 µM | inhibitory effects on α-glucosidase (α-glucosidase): moderate inhibitory effects

O=C(OCC1=C[C@@H](O)[C@@H]2C=CO[C@@H](O[C@@H]3O[C@H](COC(=O)c4ccc(O)cc4)[C@@H](O)[C@H](O)[C@H]3O)[C@H]12)c1ccc(O)cc1 [Compound 21, 10-p-hydroxybenzoyl-6β-hydroxyiridoid 1-O-β-D-(6′-O-p-hydroxybenzoyl)glucopyranoside]
inhibition of NO production (NO production): did not inhibit; also recorded: No inhibitory activity on NO production

COC1CC2(CCC3(O2)C(C)CC(OC(C)=O)C2C(C)(C)CCCC23C)C(OC)O1 (stereo not drawn) [Compound 32]
antioxidant activity [4]: did not exhibit any activities

CC(=O)OC1CC(C)C(O)(CCC2=CC(=O)NC2)C2(C)CCCC(C)(C)C12 (stereo not drawn) [Compound 55, vitexlactam C]
QR1 induction activity [5]: moderate results; also recorded: Compound 55 showed moderate result on NADP(H); quinone oxireductase type1 (QR1) induction activity

C[C@@H]1CC[C@H]2C(C)(C)CCC[C@]2(C)[C@@]1(O)CCc1cc[nH]c1C#N [Compound 79, vitepyrroloid A]
IC50 [6]: 8.7 µM

C=CC(C)(O)CCC1(C)C2=C(CC(OCC)C1C)C(C)(C)CCC2 (stereo not drawn) [Compound 90]
cytotoxicity (in words) [7]: moderate cytotoxicity in the micromolar range; also recorded: moderate cytotoxicity at micromolar range | cytotoxicity against HCT 116 cells (rank) (HCT 116 cells): most cytotoxic | Top1 inhibition compared with camptothecin (CPT) (Topoisomerase-1 (Top1)): equipotent

CCOC1C=C(CCC2(O)C(C)CC(OC(C)=O)C3C(C)(C)CCCC32C)C(=O)O1 (stereo not drawn) [Compound 94, viterotulin C]
inhibition rates of NF-κB activation [8]: 66.09 ± 11.49

CC(=O)OC1CC(C)C(O)(CCC2=CC(=O)OC2)C2(C)CCCC(C)(C)C12 (stereo not drawn) [Compound 95, vitexilactone D]
inhibition rates of NF-κB activation [8]: 57.30 ± 15.70

C[C@@H]1C[C@@H](O)C2C(C)(C)[C@@H](O[C@@H]3O[C@H](CO)[C@@H](O)[C@H](O)[C@H]3O)CC[C@]2(C)[C@@]1(O)CCC1=CCOC1=O (stereo partly drawn) [Compound 96, (3S,5S,6S,8R,9R,10S)-3,6,9-trihydroxy-13(14)-labdean-16,15-olide-3-O-β-D-gluco-pyranoside]
inhibitory effect on NO production (in words) [9]: No inhibitory activity on NO production in LPS-induced RAW 264.7 macrophages up to concentration of 100 μM

CC1=C(CCC2=CCOC2=O)[C@@]2(C)CC[C@H](O)C(C)(C)[C@@H]2CC1 [Compound 98, (3S,5R,10S)-3-hydroxy-labd-8,13-dien-16,15-olide]
inhibition of LPS-induced NO production (in words) [10]: strong | IC50 ([10]; read-out: inhibition of NO production, IC50 value): 15.8 µM | inhibition of IL-1β level [11]: significant inhibition | inhibition of IL-6 level (IL-6): significant inhibition | inhibition of iNOS [12]: able to inhibit; also recorded: inhibition on iNOS, COX-2 and NF-κB signal pathways | inhibition of COX-2 (COX-2): able to inhibit; also recorded: inhibition on iNOS, COX-2 and NF-κB signal pathways | inhibition of NF-κB signal pathways (NF-κB signal pathways): able to inhibit; also recorded: inhibition on iNOS, COX-2 and NF-κB signal pathways

CC(C)(O)C(O)CC[C@](C)(O)[C@H]1CC[C@@]2(O)C3=CC(=O)[C@@H]4C[C@@H](O)[C@@H](O)C[C@]4(C)C3CC[C@]12C (stereo partly drawn) [Compound 103, pinnatasterone]
activity against Musca domestica larvae (Musca domestica larvae): Exhibited weak activity against M. domestica larvae

CC(C)(O)CCC[C@](C)(O)C1CC[C@@]2(O)C3=CC(=O)[C@@H]4C[C@@H](O)[C@@H](O)C[C@]4(C)C3[C@H](O)C[C@]12C (stereo partly drawn) [Compound 110, scabrasterone]
molting activity in the Musca bioassay (Musca): very weak molting activity

COc1cc([C@H]2c3c(cc(OC)c(O)c3OC)C=C(C=O)[C@@H]2CO)ccc1O [Compound 128, vitexdoin F]
DPPH radical-scavenging activity compared with ascorbic acid [13]: Exhibited stronger activity than ascorbic acid using DPPH radical-scavenging assays

COc1cc(C2c3cc(O)c(O)cc3C=C(C=O)C2COC2OC(CO)C(O)C(O)C2O)ccc1O (stereo not drawn) [Compound 129, vitexnegheteroin E]
antioxidant activity [14]: antioxidant | inhibition of LPS-induced NO production [15]: inhibitory activities

COc1cc(C2c3c(cc(OC)c(O)c3OC)C=C(C=O)C2COC2OC(CO)C(O)C(O)C2O)ccc1O (stereo not drawn) [Compound 130, vitexnegheteroin F]
cytotoxic activity against HepG2 cell lines [16]: moderate cytotoxic activity; also recorded: Exhibited moderate cytotoxic activities against human liver carcinoma (HepG2) cell lines

CC1C(C=O)CCC2(C(=O)O)CCC3(C)C(=CCC4C5(C)CCC(O)C(C)(C)C5CCC43C)C12 (stereo not drawn) [Compound 147, 3β-hydroxy-30-al-urs-12-en-28-oic acid]
cytotoxic activity against HL-60 (leukemia (HL-60)): Exhibited cytotoxic activity against HL-60, SGC-7901, PANC-01, and Eca-109 cell lines | cytotoxic activity against SGC-7901 [17]: Exhibited cytotoxic activity against HL-60, SGC-7901, PANC-01, and Eca-109 cell lines | cytotoxic activity against PANC-01 [18]: Exhibited cytotoxic activity against HL-60, SGC-7901, PANC-01, and Eca-109 cell lines | cytotoxic activity against Eca-109 [19]: Exhibited cytotoxic activity against HL-60, SGC-7901, PANC-01, and Eca-109 cell lines

COC(=O)c1cccc(CCc2cc(=O)c3c(O)c(OC)ccc3o2)c1 [Compound 160]
antinociceptive action [20]: successful in reducing nociception and inflammation; also recorded: The derivatives from V. negundo L. were able to reduce inflammation, and nociception, and could be used as a potential source of antinociceptive and anti-inflammatory candidates | anti-inflammatory activity [21]: successful in reducing nociception and inflammation; also recorded: The derivatives from V. negundo L. were able to reduce inflammation, and nociception, and could be used as a potential source of antinociceptive and anti-inflammatory candidates

COc1ccc2oc(CC(O)c3cccc(C(=O)O)c3)cc(=O)c2c1O (stereo not drawn) [Compound 161]
antinociceptive action [20]: successful in reducing nociception and inflammation; also recorded: The derivatives from V. negundo L. were able to reduce inflammation, and nociception, and could be used as a potential source of antinociceptive and anti-inflammatory candidates | anti-inflammatory activity [21]: successful in reducing nociception and inflammation; also recorded: The derivatives from V. negundo L. were able to reduce inflammation, and nociception, and could be used as a potential source of antinociceptive and anti-inflammatory candidates

CC(C(=O)O)c1ccc(-c2ccccc2)c(F)c1 (stereo not drawn) [flurbiprofen]
symptoms of mastalgia (cyclic mastalgia, premenopausal women, V. agnus-castus fruit 40 mg): significant reduction | harmful effects (in vivo): no harmful effects
